Data published in PMC12131194, “Rational design, synthesis, and evaluation of novel polypharmacological compounds targeting NaV1.5, KV1.5, and K2P channels for atrial fibrillation” (The Journal of Biological Chemistry, 2025).
Where two headings read alike, the source gives them in different places. One block for each compound: values may come before it.

Columns and labels:
[1] = system: NaV1.5; details: X. laevis oocytes, racemic (R/S) compound; ref [39]; read-out: Reported IC50 NaV1.5; cited from earlier work
[2] = system: KV1.5; set-up: method as in PMID 33817777; details: X. laevis oocytes, ref [15], read-out: Reported IC50 KV1.5, cited from earlier work
[3] = system: TASK-1; set-up: method as in PMID 21946151; details: HEK-293 cells; ref [38]; read-out: Reported IC50 TASK-1; cited from earlier work
[4] = biological target: human TASK-1 (Homo sapiens, UniProt O14649); experiment: TEVC recordings in X. laevis oocytes, TASK-1; type: cell-based; set-up: human TASK-1 (KCNK3, NM_002246); expressed in transfected cells; host or cells: Xenopus laevis oocytes injected with cRNA; details: 100 μM, +40 mV, oocytes, mean ± SD
Chain of human TASK-1 (O14649 whole entry): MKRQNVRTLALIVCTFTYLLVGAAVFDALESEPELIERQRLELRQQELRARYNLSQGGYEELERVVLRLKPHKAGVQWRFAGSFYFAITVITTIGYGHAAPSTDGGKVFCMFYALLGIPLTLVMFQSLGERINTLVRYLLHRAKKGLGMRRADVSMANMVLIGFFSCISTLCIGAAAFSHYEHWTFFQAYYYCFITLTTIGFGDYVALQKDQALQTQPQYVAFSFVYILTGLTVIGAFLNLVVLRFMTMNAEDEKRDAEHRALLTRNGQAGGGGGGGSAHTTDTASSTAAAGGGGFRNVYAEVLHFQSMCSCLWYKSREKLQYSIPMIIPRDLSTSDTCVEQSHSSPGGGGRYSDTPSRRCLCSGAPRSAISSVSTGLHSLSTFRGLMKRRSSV
Procedure: (§1) The two-electrode voltage clamp (TEVC) technique was used for electrophysiology tests. Channels were expressed in Xenopus laevis oocytes. The initial channel-blocking potential was assessed at 100 μM for the 10 synthesized compounds on TASK-1 and KV1.5 channels.
(§2) To obtain X. laevis oocytes, the frogs were anesthetized with 2 g/L of tricaine methanesulfonate, and the ovarian lobes were mechanically separated with forceps. The oocytes were incubated for 120 min in an OR2 solution containing in mM: NaCl 82.5, KCl 2, MgCl2 1, HEPES 5 (pH 7.5) supplemented with 2 mg/ml of collagenase II (Sigma) to remove residual connective tissue and obtain individual oocytes. Subsequently, the oocytes were washed with a ND96 solution containing in mM: NaCl 96, KCl 2, CaCl2 1.8, MgCl2 1, HEPES 5 (pH 7.5, adjusted with NaOH) and stored at 18 °C in ND96 solution supplemented with 1 ml of gentamicin (50 mg/L), sodium pyruvate (275 mg/L) and (90 mg/L) theophylline (inhibits further oocyte maturation) before and after RNA injection.
(§3) In order to overexpress the channel in the oocyte, each of the channels to be measured was subcloned (complementary DNA (cDNA); human TASK-1 (KCNK3, NM_002246), h KV1.5 (KCNA5, NM_002234), h NaV1.5 (hH1, M77235), TASK-4/TALK-2 (KCNK17, NM_AF358910), TREK-1 (KCNK2, AF004711) and Kir2.1 (KCNJ2, NM_017296) into pSGEM, pBF1 or pSP64 expression vector, and the cDNA was linearized with NheI or MluI. Complementary RNA (cRNA) was synthesized with the mMESSAGE mMACHINE-Kit (Ambion). The quality of the cRNA was tested on an agarose gel by electrophoresis. cRNA was quantified using a UV-Vis spectrophotometer (NanoDrop 2000). Subsequently, the channel was transfected in the oocytes in stages V and VI, for which […] (TASK-1, KV1.5 or TREK-1), 10 ng (NaV1.5 or TASK-4) o 2.5 ng (Kir2.1) per oocyte of cRNA was injected with a NanojectII microinjector (Drummond Scientific). The oocytes were stored in 24-well plates for 24 to 48 h at 18 °C. After this time, the overexpression of each channel was monitored through electrophysiology.
(§4) Two-electrode voltage clamp measurements were performed 24 or 48 h after cRNA injection at room temperature (20–22 °C) in ND96 recording solution with a TurboTEC-10CD (npi) amplifier and a Digidata 1550B (for TASK-1 and KV1.5) and 1440A (for NaV1.5) A/D converter from Axon Instruments. Micropipettes were fabricated from GB 150 TF-8P borosilicate glass capillaries (Science Products) elongated in a DMZ-Universal Puller (Zeitz, Germany). […] ND96 was used as bath solution. Data acquisition was performed using Clampex 10 software (Axon Instruments), and data were analyzed with ClampFit 10 (Axon Instruments) and Origin 7 (Origin Lab Corporation).
(§5) For compound inhibition testing, from a holding potential of −80 mV a first test pulse to 0 mV of 1 s duration was followed by a repolarization step at −80 mV for 1 s, directly followed by another 1 s test pulse at +40 mV. The sweep time interval was 10 s for KV1.5 and TASK-1 channels. For the NaV1.5 channel, the block was analyzed with voltage steps from a holding potential of −80 mV. A first depolarizing pulse to −30 mV of 50 ms duration was applied, followed by a 5 ms step to −80 mV. The sweep time interval was 5 s. The compounds were applied at different concentrations to determine the half-maximal inhibitory concentration (IC50), using a fit to the Hill equation.
(§6) To test for a putative voltage-dependence of the block by the compound 6f in KV1.5, a 1.5 s voltage step protocol from −80 to +80 mV with +20 mV increments was used. The holding potential was −80 mV and the sweep time interval was 10 s. Currents were analyzed at the end of the voltage pulse. For TASK-1, voltage-dependence of block was probed using a high-potassium solution (KD96) containing in mM: KCl 96, NaCl 2, CaCl2 1.8, MgCl2 1, HEPES 5, (pH 7.5, adjusted with KOH). From a holding potential of 0 mV, voltage was stepped from −80 mV to +80 mV for 1.5 s in +20 mV steps every 10 s. […]

[5] = biological target: T1, h KV1.5 (Homo sapiens, UniProt P22460); experiment: TEVC recordings in X. laevis oocytes, KV1.5; type: cell-based; details: 100 μM, +40 mV, oocytes, mean ± SD
T1 construct: h KV1.5 (KCNA5, NM_002234); expressed in transfected cells; host or cells: Xenopus laevis oocytes injected with cRNA
T1 sequence (P22460 whole entry): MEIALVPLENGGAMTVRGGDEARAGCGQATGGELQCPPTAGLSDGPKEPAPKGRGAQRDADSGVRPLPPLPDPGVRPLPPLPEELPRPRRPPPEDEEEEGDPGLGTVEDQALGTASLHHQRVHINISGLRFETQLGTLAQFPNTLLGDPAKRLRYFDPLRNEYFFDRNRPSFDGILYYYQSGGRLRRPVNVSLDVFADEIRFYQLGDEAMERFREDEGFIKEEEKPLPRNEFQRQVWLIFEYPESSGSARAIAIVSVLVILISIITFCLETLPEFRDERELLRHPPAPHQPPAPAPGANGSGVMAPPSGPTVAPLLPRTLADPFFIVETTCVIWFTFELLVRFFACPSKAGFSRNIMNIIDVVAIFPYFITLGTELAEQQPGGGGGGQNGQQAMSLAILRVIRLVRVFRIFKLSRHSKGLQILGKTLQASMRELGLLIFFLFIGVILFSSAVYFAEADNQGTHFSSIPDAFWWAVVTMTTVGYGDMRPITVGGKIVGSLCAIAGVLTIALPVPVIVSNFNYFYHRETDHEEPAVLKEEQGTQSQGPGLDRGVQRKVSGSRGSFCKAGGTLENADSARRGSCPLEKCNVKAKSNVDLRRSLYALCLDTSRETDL
Procedure: as §1, §2, §3, §4, §5, §6

[6] = biological target: T2, h NaV1.5 (Homo sapiens, UniProt Q14524, R1027Q); experiment: TEVC recordings in X. laevis oocytes, NaV1.5; type: cell-based; details: 100 μM, −30 mV, oocytes, mean ± SD
T2 construct: expressed in transfected cells; host or cells: Xenopus laevis oocytes injected with cRNA
T2 sequence (Q14524 whole entry R1027Q): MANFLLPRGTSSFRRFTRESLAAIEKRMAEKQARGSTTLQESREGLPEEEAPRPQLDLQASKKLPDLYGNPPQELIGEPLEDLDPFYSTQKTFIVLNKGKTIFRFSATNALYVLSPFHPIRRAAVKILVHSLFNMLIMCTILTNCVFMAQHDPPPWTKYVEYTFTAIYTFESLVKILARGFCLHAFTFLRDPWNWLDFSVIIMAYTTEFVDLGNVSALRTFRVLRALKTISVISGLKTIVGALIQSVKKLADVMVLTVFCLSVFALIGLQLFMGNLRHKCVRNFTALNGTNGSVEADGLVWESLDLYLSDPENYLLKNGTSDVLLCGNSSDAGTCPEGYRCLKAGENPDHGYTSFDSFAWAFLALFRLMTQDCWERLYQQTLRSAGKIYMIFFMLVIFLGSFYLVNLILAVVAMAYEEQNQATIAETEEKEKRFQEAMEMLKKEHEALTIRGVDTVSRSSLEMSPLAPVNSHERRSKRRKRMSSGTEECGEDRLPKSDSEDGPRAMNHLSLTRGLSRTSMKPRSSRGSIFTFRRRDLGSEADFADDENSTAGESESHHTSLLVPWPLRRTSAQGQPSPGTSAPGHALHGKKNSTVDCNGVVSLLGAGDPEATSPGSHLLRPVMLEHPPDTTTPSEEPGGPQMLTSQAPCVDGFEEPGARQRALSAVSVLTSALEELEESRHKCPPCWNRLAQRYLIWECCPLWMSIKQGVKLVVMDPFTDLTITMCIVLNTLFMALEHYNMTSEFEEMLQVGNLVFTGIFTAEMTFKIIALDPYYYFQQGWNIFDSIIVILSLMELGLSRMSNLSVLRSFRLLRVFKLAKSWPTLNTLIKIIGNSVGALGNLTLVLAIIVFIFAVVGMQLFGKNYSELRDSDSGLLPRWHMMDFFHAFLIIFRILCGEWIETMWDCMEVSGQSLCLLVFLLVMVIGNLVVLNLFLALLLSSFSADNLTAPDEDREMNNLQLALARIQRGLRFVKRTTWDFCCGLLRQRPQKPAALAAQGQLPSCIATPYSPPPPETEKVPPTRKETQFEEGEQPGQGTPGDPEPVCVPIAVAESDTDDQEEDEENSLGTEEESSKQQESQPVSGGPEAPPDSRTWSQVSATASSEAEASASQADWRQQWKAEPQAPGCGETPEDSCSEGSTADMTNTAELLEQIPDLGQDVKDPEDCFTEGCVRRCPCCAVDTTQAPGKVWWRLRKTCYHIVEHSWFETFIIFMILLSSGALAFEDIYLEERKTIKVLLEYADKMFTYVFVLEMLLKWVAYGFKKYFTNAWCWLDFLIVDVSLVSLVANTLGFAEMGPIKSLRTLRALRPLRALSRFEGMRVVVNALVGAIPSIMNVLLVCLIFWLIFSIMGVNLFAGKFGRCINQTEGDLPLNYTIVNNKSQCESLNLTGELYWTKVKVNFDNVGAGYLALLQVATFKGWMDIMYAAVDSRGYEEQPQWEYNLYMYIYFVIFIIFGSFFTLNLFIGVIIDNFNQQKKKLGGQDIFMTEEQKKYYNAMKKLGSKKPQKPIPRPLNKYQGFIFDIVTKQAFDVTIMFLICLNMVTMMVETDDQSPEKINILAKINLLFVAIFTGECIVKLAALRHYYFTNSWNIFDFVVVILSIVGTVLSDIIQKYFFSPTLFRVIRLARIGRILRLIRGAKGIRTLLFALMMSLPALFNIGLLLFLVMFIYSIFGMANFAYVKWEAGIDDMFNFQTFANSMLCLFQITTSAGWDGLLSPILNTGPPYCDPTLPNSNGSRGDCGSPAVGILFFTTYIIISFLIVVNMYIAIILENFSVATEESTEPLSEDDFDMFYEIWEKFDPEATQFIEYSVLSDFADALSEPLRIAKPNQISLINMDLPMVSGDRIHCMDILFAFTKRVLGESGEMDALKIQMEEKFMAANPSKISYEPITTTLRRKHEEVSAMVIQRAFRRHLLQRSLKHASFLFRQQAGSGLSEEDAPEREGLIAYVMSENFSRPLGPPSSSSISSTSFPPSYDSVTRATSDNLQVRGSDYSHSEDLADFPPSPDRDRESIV
Procedure: as §2, §3, §4, §5
To test for a putative voltage-dependence of the block by the compound 6f in KV1.5, a 1.5 s voltage step protocol from −80 to +80 mV with +20 mV increments was used. The holding potential was −80 mV and the sweep time interval was 10 s. Currents were analyzed at the end of the voltage pulse. For TASK-1, voltage-dependence of block was probed using a high-potassium solution (KD96) containing in mM: KCl 96, NaCl 2, CaCl2 1.8, MgCl2 1, HEPES 5, (pH 7.5, adjusted with KOH). From a holding potential of 0 mV, voltage was stepped from −80 mV to +80 mV for 1.5 s in +20 mV steps every 10 s. To determine the current-voltage relationship of the NaV1.5 channel, the voltage was stepped for 50 ms from a holding potential of −80 mV to −70 mV to +80 mV in +10 mV increments every 5 s. The peak currents were subsequently plotted against the respective applied voltages.

[7] = system: human erythrocytes; experiment: Hemolysis assay; type: cell-based; details: 0.2–400 μM, 2 hours, 37 °C
Procedure: To evaluate cytotoxicity, the hemolysis of the compounds with the best simultaneous blocking activity on the channels (6e, 6f, 7a, 7b and 7c) was considered, modifying the protocol of Chen 2018 ([112]). Thus, non-heparinized human blood was collected. Erythrocytes were washed three times in 1× PBS (phosphate-buffered saline: NaCl, 8 g/L; KCl, 0.2 g/L; Na2HPO4, 1.44 g/L; and KH2PO4, 0.24 g/L; pH 7.4) and then used to prepare a 3% red blood cell (RBC) suspension. The assay was performed in a 96-well polypropylene microplate.
The compounds were prepared from 200 mM stock solutions in DMSO. Subsequently, 1:2 serial dilutions were made in 1× PBS, with final concentrations from 400 to 0.2 μM to a final volume of 200 μl per well. The microplate was incubated for 2 h at 37 °C and centrifuged at 3400 rpm for 5 min. Finally, 100 μl of the supernatant was transferred and measured in a 96-well plate. Hemoglobin release was monitored by photometric analysis of the supernatant at 540 nm using an Epoch Microplate Spectrophotometer (BioTek Instruments, Inc. Winooski, Vermont 05404-0998).
A 3% RBC suspension treated with Tween 20 was used to obtain total lysis as a positive control. Other authors who performed hemolysis assays have also considered this and other detergents, such as Triton X-100 and Sodium Dodecyl Sulfate (SDS) as positive controls ([113], [114], [115], [116]). The negative control was a suspension of red blood cells with PBS. Each experiment was performed in triplicate at all concentrations used. The percentage of hemolysis was calculated with the following (Equation 1), where Ad: absorbance of the dilution, A0: absorbance of the blank (RBC suspension with PBS), and At: total absorbance (positive control).(1) %hemolysis=Ad−A0/At−A0x100

[8] = system: NaV1.5; details: HEK-293 cells, racemic (R/S) compound, NaV1.5 open state; ref [40]; read-out: Reported IC50 NaV1.5; cited from earlier work
[9] = system: virtual atria with AF; set-up: method as in PMID 37475475, PMID 38870348; details: ref [74], [75]; cited from earlier work

Structure (SMILES): CCCCN1CCCCC1C(=O)Nc1c(C)cccc1C (stereo not shown) [Bupivacaine, bupivacaine]
IC50 [1]: 4.5 µM
IC50 ([2]; racemic (R/S) compound): 31 µM
IC50 [3]: 12.1 µM

Structure (SMILES): CCCN1CCCC[C@H]1C(=O)Nc1c(C)cccc1C [Ropivacaine, ropivacaine]
IC50 [8]: 322 µM
IC50 [3]: 17.6 µM

Structure (SMILES): CCCCc1oc2ccccc2c1C(=O)c1cc(I)c(OCCN(CC)CC)c(I)c1 [amiodarone]
Cardioversion efficacy in other simulation studies [9]: 57–80%

Structure (SMILES): O=C(NCC1CCCCN1)c1cc(OCC(F)(F)F)ccc1OCC(F)(F)F (stereo not shown) [flecainide]
Cardioversion efficacy in other simulation studies [9]: 48–70%

Structure (SMILES): CCCN1CCCC[C@H]1C(=O)Nc1c(C)cccc1C [ropivacaineS]
IC50 ([2]; S enantiomer): 129 µM

Structure (SMILES): COc1ccc(CCO[C@@H]2CCCC[C@H]2N2CC[C@@H](O)C2)cc1OC [vernakalant]
Cardioversion efficacy in other simulation studies [9]: 42–57%

Second part, led by results:

inhibition at 100 µM [4]: 88.3 ± 6.57%
inhibition at 100 µM [5]: 12.3 to 35.7%
Structure (SMILES): CCCCN(CCCC)CC(=O)Nc1ccccc1C [Compound 6a, 2-(dibutylamine)-N-(o-tolyl)acetamide]

inhibition at 100 µM [5]: 12.3 to 35.7%
Structure (SMILES): CCCCN(CCCC)CC(=O)Nc1ccccc1CC [Compound 6b, 2-(dibutylamine)-N-(2-ethylphenyl)acetamide]

inhibition at 100 µM [5]: 12.3 to 35.7%
Structure (SMILES): CCCCN(CCCC)CC(=O)Nc1cc(C)cc(C)c1 [Compound 6c, 2-(dibutylamine)-N-(3,5-dimethylphenyl)acetamide]

inhibition at 100 µM [5]: 12.3 ± 6.01%
Structure (SMILES): Cc1cc(C)cc(NC(=O)CN(C(C)C)C(C)C)c1 [Compound 6d, 2-(diisopropylamine)-N-(3,5-dimetylphenyl)acetamide]

inhibition at 100 µM [5]: 42.2 ± 21.2%
Structure (SMILES): CCCCN(CCCC)CC(=O)Nc1ccc(OC)cc1 [Compound 6e, 2-(dibutylamine)-N-(4-methoxiphenyl)acetamide]
inhibition at 100 µM [6]: 81.2 ± 19%
Hemolytic effect [7]: no hemolytic effect

inhibition at 100 µM [5]: 38 ± 16.1%
Structure (SMILES): CCCCN(CCCC)C(C)C(=O)Nc1ccc(OC)cc1 (stereo not shown) [Compound 7a, 2-(dibutylamine)-N-(4-methoxiphenyl)propanamide]
inhibition at 100 µM [6]: 11.9 ± 15%
Hemolytic effect [7]: no hemolytic effect

inhibition at 100 µM [5]: 36.9 ± 13.6%
Structure (SMILES): CCCCN(CCCC)C(C)C(=O)Nc1ccccc1C (stereo not shown) [Compound 7b, 2-(dibutylamine)-N-(o-tolyl)propanamide]
inhibition at 100 µM [6]: 58.9 ± 21.2%
Hemolytic effect [7]: no hemolytic effect

inhibition at 100 µM [4]: 89.3 ± 6.56%
inhibition at 100 µM [5]: 35.7 ± 18.3%
Structure (SMILES): CCCCN(CCCC)C(C)C(=O)Nc1cccc2ccccc12 (stereo not shown) [Compound 7c, 2-(dibutylamine)-N-(naphthalen-1-yl)propanamide]
inhibition at 100 µM [6]: 31.1 ± 13.7%
Hemolytic effect [7]: no hemolytic effect

inhibition at 100 µM [5]: 12.3 to 35.7%
Structure (SMILES): CCCCN(CCCC)C(C)C(=O)Nc1cc(C)cc(C)c1 (stereo not shown) [Compound 7d, 2-(dibutylamine)-N-(3,5-dimetilphenyl)propanamide]
